Laboratory results: US20230312646A1, “ANTIBACTERIAL PEPTIDES” (priority 2020, published 2023)
Where two headings read alike, the source gives them in different places. Square brackets hold non-standard residues; d marks the D form. Peptide text beside a SMILES is read from it. * marks the point of attachment. Phe(3,4-Cl2) = N[C@@H](Cc1ccc(Cl)c(Cl)c1)C(=O)O; Oic = O=C(O)[C@@H]1C[C@@H]2CCCC[C@@H]2N1; dNMeR = CN[C@H](CCCNC(=N)N)C(=O)O; Tridecanoyl = CCCCCCCCCCCCC(=O)*; Cha = N[C@@H](CC1CCCCC1)C(=O)O; NMeDab = CN[C@@H](CCN)C(=O)O

Assays:
^EcSC = ^EcSC (Escherichia coli, UniProt P0A988); conditions: SPR, J. Med. Chem. 2011; read-out: Kd previously determined by SPR; cited from earlier work
[1] = target: clamps from Acinetobacter baumannii (^AbSC); experiment: ITC of peptides with A. baumannii clamp; format: binding; conditions: ITC at 25° C.; means of three independant experiments, standard deviations in brackets; read-out: affinities (Kd in nM), A. baumannii
Method: (§1) ITC experiments were performed using an iTC200 or a PEAQ-ITC instrument (Microcal Malvern Panalytical). Peptides (300 or 600 µM) were titrated at 25° C. by sequential injections (usually 2 µl each) into an SC solution (30 or 60 µM). Data were corrected for heat of injection by subtracting the signal of the titration of peptides into proteiN-free buffer solution (Hepes 10 mM pH 7.4, NaCl 0.15 M, EDTA 3 mM). Each titration was performed at least twice. Analyses of experimental data were performed following a classical treatment with the AFFINImeter software (https://www.affinimeter.com; S4S, Santiago de Compostela, Spain). In addition, kinetic information was obtained in some cases with kinITC as implemented in the software AFFINImeter.
(§2) Protein quality was assessed by DLS. The purification of clamps from other bacteria used the same procedure.
(§3) The bacterial sliding clamps present a highly conserved binding site among bacterial species. […] All these species belong to the ESKAPE group and are in the first priority bacteria list established by the World Health Organization for which new antibiotics are urgently needed.

[2] = target: T1, Escherichia coli SC (^EcSC) (Escherichia coli, UniProt P0A988); experiment: biochemical; format: binding
T1 construct: His tag (inferred from the pET15b vector and Ni-NTA purification) (N); made in house; host or cells: E. coli
Method: The procedure has been described previously (Wolff, P.; Oliéric, V.; Briand, J. P.; Chaloin, O.; Dejaegere, A.; Dumas, P.; Ennifar, E.; Guichard, G.; Wagner, J.; Burnouf, D. Y., Structure-Based Design of Short Peptide Ligands Binding onto the E. coli Processivity Ring. J. Med. Chem. 2011, 54 (13), 4627-4637). Briefly, E.coli cells were transformed with plasmids pET15b containing the dnaN gene from E. coli and were grown in LB at 37° C. to OD 0.5, then induced by IPTG (0.1 mM) at 28° C. overnight. dnaN proteins fractions were first enriched on a Ni-NTA column, eluted with a histidine step (300 mM) and further purified on a Source Q column in buffer containing 20 mM Tris HCI pH 7.5, 0.5 mM EDTA and 10% (v/v) glycerol, using a gradient from 0 to 0.5 M NaCl. After a final ultracentrifugation (45 K, 1 h, 20° C.), soluble proteins were concentrated on a Centricon 30 K (Millipore) in the same buffer and stored at 4° C. in 2 M ammonium sulfate. Buffer exchange was performed on Centrikon 10 K at 4° C. before use and protein quality was assessed by DLS.
as §1
All newly synthesized peptides were tested for their interaction with ^EcSC by ITC at 25° C. As a general rule, all thermodynamic profiles reveal an exothermic interaction, and a non-favorable entropic component. The resulting negative Gibb’s free energies characterize a spontaneous interaction. The analysis of raw data by the Affinimeter® software also gave access to kinetics rate constant of the interaction.

[3] = target: T2, clamps from Pseudomonas aeruginosa (^PaSC) (Pseudomonas aeruginosa, UniProt Q9I7C4); experiment: ITC of peptides with P. aeruginosa clamp; format: binding; conditions: ITC at 25° C., means of three independant experiments, standard deviations in brackets
T2 construct: made in house
Method: as §1, §2, §3

Bacillus subtilis 168 = format: cell-based
Method: (§4) Antimicrobial activity of peptide 5d was assessed through the measurement of the Minimal Inhibition Concentration (MIC). MIC assays were performed in duplicate in 96-well microtiter plates on the basis of the protocol recommended by the Clinical and Laboratory Standards Institute. Laboratory strains of Escherichia coli D22, Bacillus subtilis 168 and Stpaphylococcus aureus HG001were cultivated on either LB-agar plates or liquid 1x Mueller Hinton broth. Briefly, a mix of 3-4 fresh (less than 36 hours) colonies grown on LB-agar plates were inoculated in 3 ml of MH broth and incubated for about 4 h at 37° C. under agitation. Dilution of these cultures to an OD600 nm of 0.002 was made in MH broth. Within a time laps not exceeding 30 min, 50 µl of this cell suspension was added to 50 µl of MH broth (containing or not serial dilutions of the peptide 5 d in MH broth) in wells of a 96-well round bottom microwell plate (Greiner; final cell density of about 5 × 10^5 cfu/ml). Plates were incubated at 37° C. for 18-20 hours. MIC was defined as the minimal antibiotic concentration that results in no visible growth of the strain in the micotiter plate well.

Escherichia coli D22 = experiment: MIC assay, E. coli; format: cell-based; conditions: MH broth, 37° C., 18-20 hours
Method: as §4

[4] = tested on: Stpaphylococcus aureus HG001; format: cell-based, S. aureus
Method: as §4

[5] = affinities (Kd in nM), E.coli, ITC at 25° C., means of three independant experiments, standard deviations in brackets

T1 sequence (P0A988 whole entry): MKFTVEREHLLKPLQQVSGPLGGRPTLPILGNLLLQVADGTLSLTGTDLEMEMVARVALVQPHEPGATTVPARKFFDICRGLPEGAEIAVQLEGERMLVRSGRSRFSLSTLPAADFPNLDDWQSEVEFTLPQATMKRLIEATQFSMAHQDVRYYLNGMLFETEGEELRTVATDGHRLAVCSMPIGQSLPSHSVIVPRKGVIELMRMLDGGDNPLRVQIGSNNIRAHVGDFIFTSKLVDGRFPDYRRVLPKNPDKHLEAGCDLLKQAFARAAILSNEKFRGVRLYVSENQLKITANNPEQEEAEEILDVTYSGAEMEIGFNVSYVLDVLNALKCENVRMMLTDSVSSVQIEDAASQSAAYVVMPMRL
T2 sequence (Q9I7C4 whole entry): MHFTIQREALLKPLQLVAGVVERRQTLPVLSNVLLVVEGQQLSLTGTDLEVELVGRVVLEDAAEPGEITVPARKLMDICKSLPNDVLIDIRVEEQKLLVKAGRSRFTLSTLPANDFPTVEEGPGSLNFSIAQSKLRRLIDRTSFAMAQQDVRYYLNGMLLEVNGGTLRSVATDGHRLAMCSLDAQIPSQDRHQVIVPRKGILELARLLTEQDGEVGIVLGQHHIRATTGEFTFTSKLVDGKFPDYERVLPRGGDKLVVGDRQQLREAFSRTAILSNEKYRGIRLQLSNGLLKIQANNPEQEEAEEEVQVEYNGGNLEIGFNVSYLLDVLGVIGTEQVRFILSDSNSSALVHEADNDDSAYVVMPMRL
Sequence of ^EcSC (P0A988 whole entry): as the sequence (P0A988 whole entry) above

Compound	Kd (^EcSC) [nM]	Kd [1] [nM]	ΔG ([2]; ITC at 25° C.) [kcal/mol]	ΔG (kcal/mol) ([2]; ITC at 298.15 K (25° C.))	Kd [2, 5] [nM]	kon ([2]; read-out: kon (M^-1.s^-1)) [M⁻¹ s⁻¹]	Kd ([3]; read-out: affinities (Kd in nM), P. aeruginosa) [nM]	ΔG (kcal mol^-1) ([2]; ITC at 25° C.)	Kd ([2]; Kd (nM), ITC at 298.15 K (25° C.)) [nM]	kon ([2]; read-out: kon (M^-1 s^-1)) [M⁻¹ s⁻¹]	Kd ([3]; affinities (Kd in nM), P. aeruginosa) [nM]	MIC (Bacillus subtilis 168; 168) [µM]	MIC (Bacillus subtilis 168; MH broth, 37° C., 18-20 hours) [µg/mL]	MIC (µg/ml) (Escherichia coli D22) [µg/mL]	MIC µM (Escherichia coli D22) [µM]	MIC [4] [µM]	MIC ([4]; MH broth, 37° C., 18-20 hours) [µg/mL]
CC(=O)N[C@@H](CCC(N)=O)C(=O)N[C@@H](CC1CCCCC1)C(=O)N[C@@H](CC(=O)O)C(=O)N[C@@H](CC(C)C)C(=O)N[C@@H](Cc1ccccc1)C(=O)O [P1, Ac-Gln-Cha-Asp-Leu-Phe-OH, reference compound] (Ac-Q[Cha]DLF-OH)	170	655	-9.2	-9.2 (± 0.2) kcal/mol	170	40000	600										
CC(=O)N[C@@H](CCC(N)=O)C(=O)N[C@@H](CC1CCCCC1)C(=O)N[C@@H](CC(=O)O)C(=O)N[C@@H](CC(C)C)C(=O)N1[C@H](C(=O)N[C@@H](Cc2ccc(Cl)c(Cl)c2)C(=O)O)C[C@@H]2CCCC[C@@H]21 [P50] (Ac-Q[Cha]DL[Oic][Phe(3,4-Cl2)]-OH)		70			39			-10.1 (± 0.2) kcal mol^-1	39	60000	20						
CCCCCCCCCCCCC(=O)N(C)[C@H](CCCNC(=N)N)C(=O)N[C@@H](CCC(N)=O)C(=O)N[C@@H](CC1CCCCC1)C(=O)N(C)[C@@H](CCNC(C)=O)C(=O)N[C@@H](CC(C)C)C(=O)N[C@@H](Cc1ccc(Cl)c(Cl)c1)C(N)=O [Peptide 5d] (Tridecanoyl-[dNMeR]Q[Cha][NMeDab](Ac)L[Phe(3,4-Cl2)]-NH2)												4	4.6	2.3 to 4.6	2 to 4	4 to 8	4.6 to 9.2
